Source: PubChem BioAssay AID248 (DTP/NCI, 2004)
“And” between values parts separate entries of the source, which are not always exact repeats. Equal entries are not always repeated. Inconclusive results and toxic doses are left out. No stated cut-off is given here; in the data, active means T/C of 150% or more; inactive means T/C below 125%.

System: L1210 leukemia ip in BDF1 mice, survival T/C
Assay: NCI In Vivo Anticancer Drug Screen. Data for tumor model L1210 Leukemia (intraperitoneal) in B6D2F1 (BDF1) mice
Conditions: endpoint: mean survival time, higher = longer survival
Procedure, shortened: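 Value reflects the ratio of survival in compound-treated mice to survival in vehicle-treated controls, with both groups carrying the same transplanted tumor.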

Measured: T/C

COC12C(COC(N)=O)C3=C(C(=O)C(C)=C(N)C3=O)N1CC1C2N1C (stereo not drawn)
active: dose: 2.0 mg/kg/injection, schedule: Q01DX009 (ip), vehicle: saline 165 % of control | dose: 5.0 mg/kg/injection, schedule: Q01DX007 (ip), vehicle: carboxymethylcellulose (CMC) 156 % of control | dose: 6.0 mg/kg/injection, schedule: Q01DX009 (ip), vehicle: saline 151 % of control and 164 % of control | dose: 6.0 mg/kg/injection, schedule: Q01DX015 (ip), vehicle: carboxymethylcellulose (CMC) 156 % of control | dose: 7.5 mg/kg/injection, schedule: Q01DX007 (ip), vehicle: carboxymethylcellulose (CMC) 158 % of control | dose: 7.5 mg/kg/injection, schedule: Q01DX015 (ip), vehicle: carboxymethylcellulose (CMC) 163 % of control | dose: 8.0 mg/kg/injection, schedule: Q01DX009 (ip), vehicle: saline 171 % of control and 176 % of control | dose: 8.0 mg/kg/injection, schedule: Q01DX015 (ip), vehicle: saline 150 % of control and 153 % of control | dose: 10.0 mg/kg/injection, schedule: Q01DX Z (ip), vehicle: carboxymethylcellulose (CMC) 151 % of control and 169 % of control | dose: 11.25 mg/kg/injection, schedule: Q01DX007 (ip), vehicle: carboxymethylcellulose (CMC) 150 % of control | dose: 12.0 mg/kg/injection, schedule: Q01DX009 (ip), vehicle: saline 153 % of control and 167 % of control | dose: 12.0 mg/kg/injection, schedule: Q02DX008 (ip), vehicle: saline 154 % of control | dose: 15.0 mg/kg/injection, schedule: Q## X003 (ip), vehicle: saline 162 % of control | dose: 15.0 mg/kg/injection, schedule: Q## X004 (ip), vehicle: saline 150 % of control | dose: 16.0 mg/kg/injection, schedule: Q02DX008 (ip), vehicle: saline 158 % of control | dose: 16.0 mg/kg/injection, schedule: Q## X040 (ip), vehicle: saline 167 % of control | dose: 20.0 mg/kg/injection, schedule: Q01DX001 (ip), vehicle: carboxymethylcellulose (CMC) 165 % of control | dose: 20.0 mg/kg/injection, schedule: Q## X003 (ip), vehicle: saline 192 % of control | dose: 22.5 mg/kg/injection, schedule: Q## X004 (ip), vehicle: saline 167 % of control | dose: 24.0 mg/kg/injection, schedule: Q01DX001 (ip), vehicle: saline 154 % of control | dose: 26.0 mg/kg/injection, schedule: Q01DX001 (ip), vehicle: carboxymethylcellulose (CMC) 151 % of control | dose: 30.0 mg/kg/injection, schedule: Q01DX001 (ip), vehicle: carboxymethylcellulose (CMC) 157 % of control | dose: 30.0 mg/kg/injection, schedule: Q01DX001 (ip), vehicle: saline 150 % of control and 162 % of control | dose: 30.0 mg/kg/injection, schedule: Q## X003 (ip), vehicle: saline 182 % of control | dose: 32.0 mg/kg/injection, schedule: Q## X008 (ip), vehicle: saline 185 % of control | dose: 32.0 mg/kg/injection, schedule: Q## X016 (ip), vehicle: saline 151 % of control | dose: 32.0 mg/kg/injection, schedule: Q## X032 (ip), vehicle: saline 168 % of control and 169 % of control | dose: 40.0 mg/kg/injection, schedule: Q## X032 (ip), vehicle: saline 166 % of control | dose: 45.0 mg/kg/injection, schedule: Q01DX001 (ip), vehicle: carboxymethylcellulose (CMC) 157 % of control | dose: 48.0 mg/kg/injection, schedule: Q## X008 (ip), vehicle: saline 191 % of control | dose: 64.0 mg/kg/injection, schedule: Q## X008 (ip), vehicle: saline 204 % of control and 229 % of control
inactive: dose: 0.37 mg/kg/injection, schedule: Q01DX009 (ip), vehicle: saline 106 % of control | dose: 0.7 mg/kg/injection, schedule: Q## X040 (ip), vehicle: saline 106 % of control | dose: 0.75 mg/kg/injection, schedule: Q01DX009 (ip), vehicle: saline 117 % of control | dose: 1.25 mg/kg/injection, schedule: Q01DX Z (ip), vehicle: carboxymethylcellulose (CMC) 93 % of control | dose: 1.4 mg/kg/injection, schedule: Q## X040 (ip), vehicle: saline 118 % of control | dose: 1.5 mg/kg/injection, schedule: Q01DX009 (ip), vehicle: saline 121 % of control | dose: 1.5 mg/kg/injection, schedule: Q## X003 (ip), vehicle: saline 117 % of control | dose: 2.0 mg/kg/injection, schedule: Q01DX009 (ip), vehicle: Klucel (hydroxypropylcellulose) (HPC) 120 % of control | dose: 2.0 mg/kg/injection, schedule: Q01DX009 (sc), vehicle: saline 109 % of control | dose: 2.0 mg/kg/injection, schedule: Q01DX015 (ip), vehicle: saline 115 % of control and 116 % of control and 121 % of control | dose: 2.2 mg/kg/injection, schedule: Q01DX007 (ip), vehicle: carboxymethylcellulose (CMC) 123 % of control | dose: 2.5 mg/kg/injection, schedule: Q01DX Z (ip), vehicle: carboxymethylcellulose (CMC) 97 % of control | dose: 3.0 mg/kg/injection, schedule: Q01DX001 (ip), vehicle: saline 116 % of control | dose: 3.0 mg/kg/injection, schedule: Q## X003 (ip), vehicle: saline 112 % of control | dose: 3.0 mg/kg/injection, schedule: Q## X008 (ip), vehicle: saline 116 % of control | dose: 3.0 mg/kg/injection, schedule: Q## X040 (ip), vehicle: saline 119 % of control | dose: 3.35 mg/kg/injection, schedule: Q01DX015 (ip), vehicle: carboxymethylcellulose (CMC) 121 % of control | dose: 3.5 mg/kg/injection, schedule: Q01DX015 (ip), vehicle: saline 123 % of control | dose: 4.0 mg/kg/injection, schedule: Q## X024 (ip), vehicle: saline 103 % of control | dose: 4.4 mg/kg/injection, schedule: Q## X004 (ip), vehicle: saline 114 % of control | dose: 5.0 mg/kg/injection, schedule: Q01DX009 (oral), vehicle: saline 122 % of control | dose: 5.0 mg/kg/injection, schedule: Q01DX015 (ip), vehicle: saline 122 % of control | dose: 5.0 mg/kg/injection, schedule: Q01DX Z (ip), vehicle: carboxymethylcellulose (CMC) 123 % of control | dose: 6.0 mg/kg/injection, schedule: Q## X008 (ip), vehicle: saline 112 % of control | dose: 6.7 mg/kg/injection, schedule: Q## X004 (ip), vehicle: saline 121 % of control | dose: 8.0 mg/kg/injection, schedule: Q## X008 (ip), vehicle: saline 104 % of control | dose: 8.0 mg/kg/injection, schedule: Q## X016 (ip), vehicle: saline 96 % of control | dose: 8.0 mg/kg/injection, schedule: Q## X024 (ip), vehicle: saline 111 % of control | dose: 15.0 mg/kg/injection, schedule: Q01DX001 (ip), vehicle: saline 123 % of control | dose: 16.0 mg/kg/injection, schedule: Q## X008 (ip), vehicle: saline 112 % of control | dose: 16.0 mg/kg/injection, schedule: Q## X016 (ip), vehicle: saline 115 % of control | dose: 20.0 mg/kg/injection, schedule: Q01DX001 (sc), vehicle: saline 109 % of control | dose: 20.0 mg/kg/injection, schedule: Q## X032 (ip), vehicle: saline 124 % of control | dose: 27.0 mg/kg/injection, schedule: Q01DX001 (oral), vehicle: saline 116 % of control | dose: 30.0 mg/kg/injection, schedule: Q01DX001 (sc), vehicle: saline 121 % of control | dose: 30.0 mg/kg/injection, schedule: Q01DX Z (ip), vehicle: carboxymethylcellulose (CMC) 95 % of control | dose: 32.0 mg/kg/injection, schedule: Q02DX008 (ip), vehicle: saline 111 % of control | dose: 36.0 mg/kg/injection, schedule: Q01DX009 (oral), vehicle: saline 106 % of control | dose: 40.0 mg/kg/injection, schedule: Q01DX001 (oral), vehicle: saline 118 % of control | dose: 48.0 mg/kg/injection, schedule: Q01DX009 (oral), vehicle: saline 90 % of control | dose: 60.0 mg/kg/injection, schedule: Q01DX001 (oral), vehicle: saline 124 % of control | dose: 64.0 mg/kg/injection, schedule: Q## X024 (ip), vehicle: saline 88 % of control | dose: 90.0 mg/kg/injection, schedule: Q01DX001 (oral), vehicle: saline 124 % of control | dose: 90.0 mg/kg/injection, schedule: Q01DX001 (sc), vehicle: saline 118 % of control | dose: 96.0 mg/kg/injection, schedule: Q## X008 (ip), vehicle: saline 114 % of control | dose: 100.0 mg/kg/injection, schedule: Q01DX001 (ip), vehicle: saline 117 % of control | dose: 120.0 mg/kg/injection, schedule: Q01DX001 (ip), vehicle: saline 113 % of control and 87 % of control | dose: 180.0 mg/kg/injection, schedule: Q01DX001 (oral), vehicle: saline 101 % of control | dose: 360.0 mg/kg/injection, schedule: Q01DX001 (oral), vehicle: saline 92 % of control

CC(=O)Nc1nc(Cl)c2ncn(C3OC(COCc4ccccc4)C(OCc4ccccc4)C3OCc3ccccc3)c2n1 (stereo not drawn)
inactive: dose: 100.0 mg/kg/injection, schedule: Q04DX003 (ip), vehicle: Klucel (hydroxypropylcellulose) (HPC) 103 % of control | dose: 200.0 mg/kg/injection, schedule: Q04DX003 (ip), vehicle: Klucel (hydroxypropylcellulose) (HPC) 103 % of control | dose: 400.0 mg/kg/injection, schedule: Q04DX003 (ip), vehicle: Klucel (hydroxypropylcellulose) (HPC) 104 % of control
